In PubChem BioAssay (NCI) one finds TGI and GI50 data, which are given here for 15 compounds.

Assay in all cases: NCI tumour cell line growth inhibition, 48 h
Assay [1] deals with DU-145 prostate.
Assay [2] relates to HL-60(TB) leukemia.
The subject of assay [3] is HOP-92 NSCLC.
For assay [4], the system named is M14 melanoma.
The subject of assay [5] is MDA-MB-231 breast.
Assay [6] relates to MDA-MB-435.
The subject of assay [7] is OVCAR-4 ovarian.
Assay [8] deals with SK-MEL-5 melanoma.
Assay [9] relates to UACC-257 melanoma.
Assay [10] concerns NCI-H226 lung.

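Five compound concentrations were applied to cells in 96-well plates for 48 hours; endpoints were derived by simple linear interpolation of the resulting dose-response curve. GI50 = concentration required for 50% inhibition of growth. TGI marks complete inhibition of growth.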 *1 amine or outer side, *2 acyl side, *3 side chain or, on linkers, in order; H or OH if unused. Where a SMILES comes first, the peptide text is derived from it. Bridges are numbered along the chain shown (N, C = ends). Roman numbers before positions name the chains, in order. [ ]: non-standard residue; d: D form. The star is where a group is joined. Actinocin(9to1) = Cc1c2oc3c(C)ccc(C(=O)[*:1])c3nc-2c(C(=O)[*:2])c(N)c1=O; NMeV = CN[CH](C(=O)O)C(C)C; OSu = O=C1CCC(=O)N1O*; Sar = CNCC(=O)O A value given as a limit tells only on which side of the number the result lay.

For the compound `C[C@]12[C@@H]3CC[C@H]1[C@@H](O)C(=O)N2CC3`, the TGI in assay [1], in assay [2], in assay [3], in assay [4], in [5] and in assay [6] was more than 100 µM throughout. The TGI in assay [7], in assay [8] and in assay [9] was more than 100 µM in each case.

Consider `Cc1c2oc3c(C)ccc(C(=O)NC4C(=O)NC(C(C)C)C(=O)N5CCCC5C(=O)N(C)CC(=O)N(C)C(C(C)C)C(=O)OC4C)c3nc-2c(C(=O)NC2C(=O)NC(C(C)C)C(=O)N3CCCC3C(=O)N(C)CC(=O)N(C)C(C(C)C)C(=O)OC2C)c(N)c1=O` (stereo not given) (I: TVP[Sar][NMeV] / II: TVP[Sar][NMeV]; ester I:1-I:C, II:1-II:C; linker I:N-II:N via Actinocin(9to1); configuration not given here), for which the GI50 in assay [1] was 0.00129 µM; in assay [2] it was 0.000288 µM. Moreover, the TGI is more than 1 µM in assay [1]; 0.0237 µM in assay [2]; 0.0203 µM in assay [3]; 0.0207 µM in [4]; more than 0.231 µM in assay [5]; 0.0125 µM in [6]. In addition, the TGI worked out at 0.00187 µM in assay [7], 0.0153 µM in assay [8] and 0.0231 µM in [9].

Turning to `N#Cc1cccc(-n2[nH]c(=O)ccc2=O)c1`, the TGI in [2], in assay [3], in assay [4], in assay [10], in assay [7] and in assay [8] was more than 100 µM throughout. Besides, the TGI in assay [9] is more than 100 µM.

As for `O=C(C(=O)n1ccc2ccccc21)n1ccc2ccccc21`, the TGI in assay [1] is more than 100 µM; in assay [3], more than 100 µM; in [5] it was more than 100 µM; in assay [6], more than 100 µM; in [10] it was more than 100 µM; in assay [7], 78 µM. Further, the TGI in assay [8] and in assay [9] was more than 100 µM each time.

Take `CC1(C)[C@@H](Cn2cc(I)c(=O)[nH]c2=O)CC[C@@]1(C)CO`: the TGI in [1], in assay [3], in [4], in assay [5], in assay [6] and in assay [10] was more than 100 µM throughout. Also, the TGI in [7], in assay [8] and in assay [9] was more than 100 µM each time.

`NCCCCC(NC(=O)C(N)Cc1ccc(O)cc1)C(=O)NC(CCCCN)C(=O)NC(CCCCN)C(=O)ON1C(=O)CCC1=O` (stereo not given) (H-YKKK-OSu; configuration not given here): the TGI in assay [2], in assay [3], in assay [4], in assay [5], in assay [10] and in assay [8] was more than 100 µM throughout. For the same compound, the TGI in assay [9] is more than 100 µM.

On to `CCNC(=O)c1ccc(C)c(N=NN(C)C)c1`, for which the TGI in assay [3], in [4], in [7], in [8] and in assay [9] was more than 100 µM in each case.

As for `O=c1[nH]c2cc(Cl)ccc2nc1/C(=N\Nc1ccccc1)C(O)c1ccc(Cl)c(Cl)c1` (stereo not given), the TGI in assay [2], in assay [3], in [4], in assay [10], in assay [7] and in assay [8] was more than 100 µM each time. The TGI in [9] was more than 100 µM.

In the case of `CON(C)C(=O)C(Cc1ccccc1)NC(=O)OCc1ccccc1` (stereo not given), the TGI in [2], in assay [3], in [4], in assay [7], in [8] and in assay [9] was more than 100 µM throughout.

For `CCCCCCOc1ccc(/C=N/Nc2cc(C)nc3ccc(Cl)cc23)cc1`, the GI50 in assay [1] is 1.86 µM; in assay [2] it was 1.39 µM; in assay [3], 1.42 µM; in assay [4], 1.71 µM; in assay [5] it was 1.67 µM; in assay [6], 1.71 µM. The values for the GI50 in assay [7], in [8] and in assay [9] were 1.75 µM, 1.69 µM and 1.61 µM, respectively. Also, the TGI in [1] turned out to be 3.57 µM; in [2], 3.38 µM; in assay [3], 3.07 µM; in [4] it was 3.36 µM; in assay [5], 3.24 µM; in [6] it was 3.15 µM. The TGI is 3.18 µM in assay [7], 3.06 µM in assay [8] and 3.26 µM in assay [9].

For `CCOC(=O)c1cc(-c2ccc(OC)cc2)c([N+](=O)[O-])n1C`, the TGI in assay [1], in assay [2], in assay [3], in [4], in assay [6] and in [10] was more than 10 µM in each case. Moreover, the TGI in assay [7] and in [9] was more than 10 µM in each case.

Take `COc1cc2c(cc1O)[C@H](C)C(c1ccc(OC)c(OC)c1)O2` (stereo not given in full): the TGI in assay [2] stood at 13.7 µM; in [3], 23.1 µM; in [4], 15.9 µM; in assay [10] it was 64.6 µM; in assay [7] it was 26.2 µM; in assay [8], 20.8 µM. This compound registered a TGI in [9] of 35.9 µM.

Take `COc1cc(S(=O)(=O)Nc2ccc(-c3csc(N4C(=O)CSC4c4cccc(Oc5ccccc5)c4)n3)cc2)ccc1Cl` (stereo not given): the TGI in [1] was more than 100 µM; in [2], 48.9 µM; in assay [3], more than 100 µM; in assay [4], more than 100 µM; in assay [6], more than 100 µM; in assay [10] it was more than 100 µM. Moreover, the TGI in [7] and in assay [8] was more than 100 µM in each case.

Regarding `Cc1ccc(Nc2nc(NNC(=O)Cc3ccccc3)nc(NNC(=O)c3ccncc3)n2)cc1`, the TGI in assay [1], in assay [2], in assay [3], in [4], in assay [5] and in [7] was more than 10 µM each time. For the same compound, the TGI in assay [8] and in [9] was more than 10 µM throughout.

Consider `COc1ccc(C2Oc3cc(OC)c(OC)cc3C2CCl)cc1OC` (stereo not given), for which the TGI in assay [2], in [3], in [4], in [10], in assay [7] and in assay [8] was more than 100 µM in each case. The compound also returned a TGI in assay [9] of more than 100 µM.
